The results in this text go back to patent publication US11273163B2, “Antiviral treatment” (priority 2020, dated 2022).

For this test, the system named is SARS-CoV-2 B.1.1.7. Put plainly: microbe, parasite or virus in culture. Type of test: cell-based.

For `CN1CCCC(n2nc(Cc3ccc(Cl)cc3)c3ccccc3c2=O)CC1` (stereo not shown) [Azelastine, 4-[(4-chlorophenyl)methyl]-2-(1-methylazepan-4-yl)phthalazin-1-one], the inhibition of infection result is “over 90%”.
